Reference: patent publication US20150133493A1, “COUMARIN-BASED COMPOUNDS FOR THE TREATMENT OF ALZHEIMER'S DISEASE AND CANCER” (Sloan-Kettering Institute for Cancer Research, priority 2008, published 2015)
“Also recorded” adds a separate entry of the source.

Key:
γ-secretase [1] = biological target: T1, γ-secretase (Homo sapiens, UniProt P49768); assay: In vitro γ-secretase activity assay, Aβ42 production (ECL); assay type: biochemical; details: in vitro inhibition of γ-secretase activity that generates Aβ42; 2.5 hr at 37° C., ECL detection
T1 construct: endogenous in cells
Procedure: FIG. 2. In vitro characterization of coumarin-dimer allosteric GSIs against various γ-secretase cleavage products. […] The IC50 values were calculated from the dose response curves using a non-linear regression analysis in Prism software. […] The three β-amyloid-detection in vitro assays were modified from our previously reported assay (21) using a biotinylated substrate that eliminated the requirement of anti-β-amyloid biotinylated antibody. Ruthenylated antibodies that detected the -40, -42, or -38 cleavage site were incorporated to detect proteolysis indicative of γ-secretase activity. In vitro Notch assay utilized a recombinant transmembrane portion of the Notch peptide and anti-Notch1 SM320 antibody in conjunction with ruthenylated anti-rabbit secondary antibodies. Electrochemiluminescence was quantified on an Analyzer (BioVeris).
Briefly, recombinant peptide substrate was incubated with γ-secretase (40 μg/ml) in the presence or absence of test compound. […] The reaction was incubated for 2.5 hr at 37° C. and stopped by adding RIPA buffer (150 mM NaCl, 1.0% NP-40, 0.5% sodium deoxycholate, 0.1% SDS, 50 mM Tris HCl, pH 8.0). […] The amount of product was determined using synthetic peptide or recombinant standards.
(§1) Cell membranes and solubilized γ-secretase were prepared as described previously (36). The in vitro and cell γ-secretase assays detecting either Aβ38, Aβ40, or Aβ42 cleavage were performed similar as previously described (21, 36). Cleaved product was detected using ruthenylated antibodies that recognize specific APP cleavage sites (Aβ31-38*, G2-10*, or G2-11* antibody for Aβ38, Aβ40, or Aβ42 respectively). The Km and Vmax in the presence and absence of γ-secretase inhibitors were analyzed by non-linear curve fit using the software SigmaPlot 8.0 with the Michaelis-Menten equation (v=Vm [S]/(Km+[S]; v: initial rate; Vm: maximum velocity; Km: the Michaelis-Menten constant, S: substrate).

γ-secretase [2] = biological target: T1, γ-secretase; assay: In vitro γ-secretase activity assay, Aβ40 production (ECL); assay type: biochemical; details: for IC50: in vitro inhibition of γ-secretase activity that generates Aβ40, 2.5 hr at 37° C., ECL detection; for Aβ40/Aβ42 ratio: ratio of IC50 for Aβ40 to IC50 for Aβ42
Procedure: FIG. 2. In vitro characterization of coumarin-dimer allosteric GSIs against various γ-secretase cleavage products. The potency of 7 unique coumarin-based γ-secretase inhibitors were evaluated for efficacy against γ-secretase-mediated production of Aβ40, Aβ42, Aβ38, and Notch. Additionally, the pan-GSI Compound E was also examined in these assays. The IC50 values were calculated from the dose response curves using a non-linear regression analysis in Prism software. IC50 values are presented with standard deviation (n=3 for each data point). The three β-amyloid-detection in vitro assays were modified from our previously reported assay (21) using a biotinylated substrate that eliminated the requirement of anti-β-amyloid biotinylated antibody. Ruthenylated antibodies that detected the -40, -42, or -38 cleavage site were incorporated to detect proteolysis indicative of γ-secretase activity. In vitro Notch assay utilized a recombinant transmembrane portion of the Notch peptide and anti-Notch1 SM320 antibody in conjunction with ruthenylated anti-rabbit secondary antibodies. Electrochemiluminescence was quantified on an Analyzer (BioVeris). The selectivity ratio for Aβ42 inhibition over Aβ40 and Notch are indicated in the two far right columns.
The assay protocol employed was a modified version of that described in Li et al., 2000, Proc. Nat'l Acad. Sci. USA 97:6183-643, incorporated herein by reference. Briefly, recombinant peptide substrate was incubated with γ-secretase (40 μg/ml) in the presence or absence of test compound. The reaction mixture contained 0.25% CHAPSO, 0.1 μg/μl BSA, protease inhibitor, 50 mM PIPES, pH 7.0, 5 mM MgCl2, 5 mM CaCl2 and 150 mM KCl. The reaction was incubated for 2.5 hr at 37° C. and stopped by adding RIPA buffer (150 mM NaCl, 1.0% NP-40, 0.5% sodium deoxycholate, 0.1% SDS, 50 mM Tris HCl, pH 8.0). The products were detected with various antibody combinations using electrochemiluminescence (ECL) technology as previously described in Li et al., 2000, Proc. Nat'l Acad. Sci. USA 97:6183-643; Lai et al., 2003, J. Biol. Chem. 278: 22475-22481; and Yin et al., 2007, J. Biol. Chem. 282:23639-23644. The amount of product was determined using synthetic peptide or recombinant standards.
as §1

[3] = tested on: N2a mouse neuroblastoma cells that stably express Swedish-mutated APP; assay: Cell-based assay of secreted Aβ42, Aβ40, Aβ38 in APPsw-N2A cells; details: 24 hrs, in words, CS-1 up to 30 μM
Procedure: FIG. 3. Cellular evaluation of the coumarin-dimer CS-1 and its selective inhibition of Aβ42. Compounds were incubated with the APPsw-N2A mouse neuroblastoma cells for 24 hours and media were analyzed by biotinylated 4G8 and ruthenylated antibodies specific for each respective cleavage product. […] (d) Immunoprecipitation mass spectrometry analysis of CS-1 effect on secreted β-amyloid species. Aβ peptides were immunoprecipitated using 4G8 antibody and isolated with Protein G+/A agarose beads. Samples were analyzed by MALDI-MS. Samples shown are representative and each data point was performed in triplicate. (e) Cell-based Notch cleavage assay. HEK-293 cells were transfected with ΔE Notch construct and then Compound E and CS-1 were evaluated for their ability to inhibit γ-secretase-mediated Notch intracellular domain production. […] Western blot is representative and was performed in triplicate. (f) Effect of CS-1 on AICD production. N2A APPsw cell membrane was prepared and incubated with the indicated concentrations of CS-1 at 37° C. for 2 hours. The generated AICD and APP-CTFs were detected by Western Blotting using APPc antibody. Western blot is representative and was performed in triplicate.
We next set out to determine if the selective inhibition of Aβ42 was maintained in a cell-based system for APP processing. First, we compared our lead compound CS-1 (FIG. 3a) to Compound E (FIG. 3b) and the GSM compound indomethacin (FIG. 3c). N2a mouse neuroblastoma cells that stably express Swedish-mutated APP substrate were treated with the indicated compounds for 24 hrs at 37° C. Following 24 hr incubation period, the medium was collected from the cells and assayed for secreted Aβ42, Aβ40, and Aβ38. […] The result for indomethacin mirrored those findings by Kukar et al. whereby a different cell-based system was utilized (17), further validating our assay system for analysis of these Aβ species. […] This may reflect subtle variations between the cellular and in vitro conformations of γ-secretase. Nevertheless, the cell-based studies confirmed that CS-1 maintains a preference for inhibition of the γ-secretase mediated production of Aβ42 over Aβ40 or Aβ38, which is distinct to previously reported GSMs (17) and inhibitors (14-15, 18).
as §1

Compound | IC50 (γ-secretase [1]) [µM] | IC50 (γ-secretase [2]) [µM] | Aβ40/Aβ42 ratio (γ-secretase [2]) | effect on secreted Aβ38 production [3] | effect on secreted Aβ40 production [3] | effect on secreted Aβ42 production [3]
CCc1ccc(C(c2c(O)c3ccccc3oc2=O)c2c(O)c3ccccc3oc2=O)cc1 [Compound 210] | 1.9 | 4.6 | 2.4 | – | – | –
O=c1oc2ccccc2c(O)c1C1c2cc(F)c(F)cc2Oc2c1c(=O)oc1ccccc21 (stereo not shown) [Compound 369] | 0.9 | 2.6 | 2.9 | – | – | –
Nc1ccc2c(c1)Oc1c(c(=O)oc3ccccc13)C2c1c(O)c2ccccc2oc1=O (stereo not shown) [Compound 372] | 9.9 | 19.4 | 2.0 | – | – | –
O=c1oc2ccccc2c(O)c1C(c1ccc(Br)cc1)c1c(O)c2ccccc2oc1=O [compound 730] | 1.2 | 1.7 | 1.4 | – | – | –
O=C(Cc1cc(F)cc(F)c1)c1c(O)c2ccccc2oc1=O [Compound 560] | 26.9 | 89.9 | 3.3 | – | – | –
O=c1[nH]c2ccccc2c(O)c1C(c1cc(F)c(F)c(F)c1)c1c(O)c2ccccc2[nH]c1=O [Compound 45] | 3.4 | 8 | 2.4 | – | – | –
O=c1oc2ccccc2c(O)c1C1c2c(F)c(F)c(F)c(F)c2Oc2c1c(=O)oc1ccccc21 (stereo not shown) [Compound 423] | 1.3 | 3.4 | 2.6 | – | – | –
O=c1oc2ccccc2c(O)c1C(c1ccccc1F)c1c(O)c2ccccc2oc1=O [Compound 734] | 7.2 | 1.95 | 0.3 | – | – | –
CC(=O)Nc1ccc(C(c2c(O)c3ccccc3oc2=O)c2c(O)c3ccccc3oc2=O)cc1 [Compound 732] | 15.9 | 63.9 | 4.0 | – | – | –
O=c1oc2ccccc2c(O)c1C(c1cccc(C(F)(F)F)c1)c1c(O)c2ccccc2oc1=O [Compound 209] | 0.8 | 2 | 2.5 | – | – | –
O=c1oc2ccc(F)cc2c(O)c1C(c1cc(F)c(F)c(F)c1)c1c(O)c2cc(F)ccc2oc1=O [Compound 203] | 0.9 | 2.6 | 2.9 | – | – | –
O=c1oc2ccccc2c(O)c1C(c1ccc(C(F)(F)F)cc1)c1c(O)c2ccccc2oc1=O [Compound 728] | 1.6 | 7 | 4.4 | – | – | –
Oc1ccnc(O)c1C(c1cc(F)c(F)c(F)c1)c1c(O)ccnc1O [Compound 738] | > 100 | > 100 | – | – | – | –
O=c1oc2ccccc2c(O)c1C(c1ccc(Cl)cc1)c1c(O)c2ccccc2oc1=O [compound 729] | 1.2 | 1.7 | 1.4 | – | – | –
Cc1coc(=O)c(C(c2cc(F)c(F)c(F)c2)c2c(O)c(C)coc2=O)c1O [compound 668] | 1.7 | 4.2 | 2.5 | – | – | –
C/C=C/C=C/C(c1c(O)c2ccccc2oc1=O)c1c(O)c2ccccc2oc1=O [Compound 257] | 7.3 | 9.9 | 1.4 | – | – | –
O=C(CC(c1cc(F)c(F)c(F)c1)c1c(O)c2ccccc2oc1=O)NCc1cc(F)cc(F)c1 (stereo not shown) [compound 512] | 1.24 | 1.86 | 1.5 | – | – | –
O=c1oc2ccccc2c(O)c1C(Cc1ccc(F)cc1)c1c(O)c2ccccc2oc1=O [Compound 199] | 0.9 | 4 | 4.4 | – | – | –
O=c1sc2ccccc2c(O)c1C(c1cc(F)c(F)c(F)c1)c1c(O)c2ccccc2sc1=O [Compound 53] | 0.5 | 1.3 | 2.6 | – | – | –
Cc1ccc2oc(=O)c(C(c3cc(F)c(F)c(F)c3)c3c(O)c4cc(C)ccc4oc3=O)c(O)c2c1 [Compound 197] | 1.59 | 3.26 | 2.1 | – | – | –
O=C(Cc1cc(F)cc(F)c1)NCCNC(=O)CC(c1cc(F)c(F)c(F)c1)c1c(O)c2ccccc2oc1=O (stereo not shown) [compound 520] | 4.53 | 9.23 | 2.0 | – | – | –
O=c1oc2ccccc2c(O)c1C(c1ccc(I)cc1)c1c(O)c2ccccc2oc1=O [compound 731] | 1.5 | 6.1 | 4.1 | – | – | –
COc1ccc2c(c1)c(CC(=O)O)c(C)n2C(=O)c1ccc(Cl)cc1 [indomethacin] | – | – | – | potently increases; also recorded: significantly enhanced | little effect; also recorded: no effect | reduces; also recorded: abrogated
COc1ccc(/C=C/C(c2c(O)c3ccccc3oc2=O)c2c(O)c3ccccc3oc2=O)cc1 [(trans)-258] | 5.6 | 21.5 | 3.8 | – | – | –
O=c1oc2ccccc2c(O)c1Cc1cc(F)c(F)c(F)c1 [compound 476] | > 100 | > 100 | – | – | – | –
O=c1oc2ccccc2c(O)c1C(c1c(O)c2ccccc2oc1=O)C1CCCCC1 [Compound 733] | 1.2 | 4.2 | 3.5 | – | – | –
O=c1oc2ccccc2c(O)c1C(c1cc(F)cc(F)c1)c1c(O)c2ccccc2oc1=O [Compound 61] | 0.17 | 0.34 | 2.0 | – | – | –
O=c1oc2ccccc2c(O)c1C(/C=C/c1cc(F)c(F)c(F)c1)c1c(O)c2ccccc2oc1=O [(trans)-1] | 2.9 | 3.7 | 1.3 | – | – | –
COc1ccc(C(c2c(O)c3ccccc3oc2=O)c2c(O)c3ccccc3oc2=O)cc1F [Compound 77] | 2.8 | 6.2 | 2.2 | – | – | –
